{
  "source": "ChEMBL document CHEMBL1140179",
  "about": "“Rhabdastrellins A-F, isomalabaricane triterpenes from the marine sponge Rhabdastrella aff. distincta” (J Nat Prod, 2008)",
  "tested_on": "HL-60",
  "assay": "Cytotoxicity against human HL60 cells",
  "type": "functional, cell-based",
  "data": [
    {"smiles": "C\\C(=C/C=C/C(C)=C1/C(=O)C[C@H]2[C@@]3(C)CC[C@H](O)[C@](C)(CO)[C@@H]3CC[C@]12C)c1ccc(C)c(=O)o1", "note": "[RHABDASTRELLIN A]", "values": [
      {"measurement": "IC50", "result": 4.2, "unit": "µg/mL"}
    ]},
    {"smiles": "CC(/C=C/C=C(C)/C=C/C(O)C(C)(C)O)=C1/C(=O)C[C@H]2[C@@]3(C)CC[C@H](O)[C@](C)(CO)[C@@H]3CC[C@]12C", "note": "(stereo partly specified) [RHABDASTRELLIN B]", "values": [
      {"measurement": "IC50", "result": "> 10", "unit": "µg/mL"}
    ]},
    {"smiles": "CC(/C=C/C(O)C(C)(C)O)=C\\C=C\\C(C)=C1\\C(=O)C[C@H]2[C@@]3(C)CC[C@H](O)[C@](C)(CO)[C@@H]3CC[C@]12C", "note": "(stereo partly specified) [RHABDASTRELLIN C]", "values": [
      {"measurement": "IC50", "result": "> 10", "unit": "µg/mL"}
    ]},
    {"smiles": "C/C(C(=O)/C=C/C(C)=C/C=C/C(C)(C)O)=C1/C(=O)C[C@H]2[C@@]3(C)CC[C@H](O)[C@](C)(CO)[C@@H]3CC[C@]12C", "note": "[RHABDASTRELLIN D]", "values": [
      {"measurement": "IC50", "result": "> 10", "unit": "µg/mL"}
    ]},
    {"smiles": "COC(=O)/C(C)=C/C=C/C(C)=C/C=C/C(C)=C1/C(=O)C[C@H]2[C@@]3(C)CC[C@H](O)C(C)(C)[C@@H]3CC[C@]12C", "note": "[RHABDASTRELLIN E]", "values": [
      {"measurement": "IC50", "result": "> 10", "unit": "µg/mL"}
    ]},
    {"smiles": "COC(=O)/C(C)=C/C=C/C(C)=C/C=C/C(C)=C1\\C(=O)C[C@H]2[C@@]3(C)CC[C@H](O)C(C)(C)[C@@H]3CC[C@]12C", "note": "[RHABDASTRELLIN F]", "values": [
      {"measurement": "IC50", "result": "> 10", "unit": "µg/mL"}
    ]}
  ]
}
